The target of assay [1] is T1, HLA A*0201 molecule on T2 cells (Homo sapiens, UniProt P04439, D140Y/D185E/D98H/E176V/E277Q/G131W/G231S/I119V/I121R/I166T/I218V/L300P/L318F/N151K/N90K/P208A/P217A/Q86G/Q94H/R138H/R169H/T345S).
T1 construct: host or cells: T2 cells
In kind it is binding. From the text:
T2 cells, ATCC accession no. CRL-1992, are defective for endogenous class I presentation, but peptide binding to the MHC molecule stabilizes its expression on the cell surface. The stabilized MHC molecule can be detected by flow cytometry with a monoclonal antibody to the HLA A*0201 molecule. T2 cells express HLA A*0201 but not the HLA DR and are class II MHC antigen negative. […] A293 cells are human embryonic kidney cells. A293-IE1 is a stably transfected human kidney cell line endogenously expressing the CMV-IE1 protein. All cells used in experiments were mycoplasma-free and were maintained in RPMI-1640 supplemented with 10% FBS, penicillin-streptomycin and 2 mM glutamine.
T2 cells are defective for endogenous class I presentation but the presence of peptide binding to the MHC molecule will stabilize its expression on the cell surface. The stabilized MHC molecule can be detected by flow cytometry using a monoclonal antibody to the HLA A-A*0201 molecule. Peptide sequences were selected using two algorithms for HLA peptide predicted motifs publicly available on the internet ([…] (Rammensee et al., Immunogenetics 50:213-219, 1999) and BIMAS).
The peptides were assayed on T2 cells for their ability to bind and stabilize the A2 molecules on the cell surface according to methods described in Gricks et al., Cancer Res. 61:5145-5152, 2001, with modifications. […] The level of stabilized HLA-A2 on the surface of the T2 cells was determined according to known methods using monoclonal antibody BB7.2, which specifically recognizes HLA A*0201 as described in BenMohamed et al., Hum. Immunol. 61:764-779, 2000 and Parham et al., Hum. Immunol. 3:277-299, 1981 and a FITC-labeled goat anti-mouse F(ab′)2. Fluorescence was detected with a FACSCalibur™ flowcytometer. Numbers in the peak channel were compared to control T2 cells that contained HLA mismatch B7 peptide or no peptide.
The results were expressed as fold increased fluorescence compared to the mean of no peptide and HLA mismatch B7 peptide.

Assay [2] concerns CD8 cells. The experiment in a line: Intracellular cytokine (ICC) IFN-γ assay, fresh blood from CMV seropositive stem cell transplantation subjects. It is filed as cell-based, human. As to the method: Having identified IE1-297 peptide as an important epitope in the process of CTL response to CMV-IE1 immunization in A2 transgenic mice, this peptide was tested to determine if it was recognized by CD8 cells from CMV seropositive human subjects. Fresh whole blood samples were collected from four individuals susceptible to CMV reactivation 40, 120, 150 and 180 days after stem cell transplantation. Frozen white blood cells from the human subjects were stimulated for 6 hours with 100 μM IE1-297, pp65(p495) or HIV peptide (negative control) and PHA (positive control). The cells then were stained to detect CD8 and IFN-γ production. Four patient samples were analyzed by cytokine flow cytometry.

Assay [3] has as its system CD8+ peripheral blood lymphocytes. Nature of the assay: ICC/IFN-γ assay, cryopreserved PBL of HLA-A2 HCT subjects. The note with it: CMV reactivation.
Procedure: Five CMV seropositive HLA A2 human subjects showing CMV reactivation within 100 days post hematopoietic cell transplantation (HCT) and 6 CMV seropositive subjects without CMV reactivation were followed at days 40, 90, 120, 150, 180 and 360 post HCT. The intracellular IFN-γ response (ICC) to CMVpp65p495-503, CMV-IE1-256, IE1-297 and IE1-316 and the CD8 MHC/peptide binding (tetramer assay) using CMVpp65p495-503, IE1-297 and IE1-316 were analyzed in two groups.
Eleven HLA A*0201 HCT recipients, at risk for CMV infection because of donor and/or recipient CMV-seropositivity, were enrolled in this study. The subjects included related sibling donors and recipients of allogeneic HCT for hematologic malignancies as well as HCT recipients of matched unrelated donor (MUD).
Peripheral blood mononuclear cells (PBMC) from heparin-treated whole blood were isolated using Histopaque™-1077 density gradients, washed with 1× phosphate-buffered saline (PBS) and cryopreserved in aliquots of 3×10^6 to 5×10^6 cells/mL in 90% fetal bovine serum (FBS) and 10% dimethylsulfoxide. The plasma was collected by centrifugation, filtered through 0.45 μm Acrodisc™ filters and stored at −20° C. until DNA extraction.
Donor samples (except for MUD subjects) were drawn before administration of granulocyte-colony stimulating factor (G-CSF) and later at the time of harvest. Recipient blood samples were collected at day 40, 90, 120, 150, 180 and 360 post-transplant for ICC and tetramer binding assays, and the CMV reactivation was monitored starting at day 21 post-HCT and twice weekly until day 100 using a shell vial assay and quantitative PCR.
To evaluate the immune reactivity to CMV in HLA-A2 subjects, cryopreserved peripheral blood lymphocytes (PBL) from the subjects were stimulated with peptides derived from CMV-pp65 and CMV-IE1 proteins. […] The positive stimulation control contained phytohemagglutinin (PHA) and the negative control contained HIV peptide.
After 1 hour incubation at 37° C. in 5% CO2, 1 μL (stock 5 mg/mL) of Brefeldin A, a cytokine secretion inhibitor, was added to the cells and further incubated overnight. Samples were then washed with 1×PBS and 0.5% bovine serum albumin and stained for 20 minutes in the dark with 5 μL of anti-CD8 antibody conjugated to streptavidin-phycoerythrin (CD8-PE). The cells were fixed and permeabilized for 20 minutes using the Cytofix/Cytoperm Kit™ (Pharmingen™) and stained for 30 minutes at 4° C. in the dark with 1 μL of anti-IFN-γ conjugated with streptavidin-allophycocyanin (APC).
After purification, the peptides were dissolved in 10% DMSO/water to a concentration of 5 mM and used at a final concentration of 25 μM for T cell stimulation. […] The latter two peptides served as a positive and negative control, respectively.
For FACS, patient cell samples were washed twice with 1× Cytofix™ Wash Solution for analysis by fluorescence-activated cell sorting using a FACScalibur™ instrument. The lymphocytes were gated based on forward and side scatter. A minimum of 50,000 events were analyzed per sample. The reported data are the values obtained after subtraction of background levels acquired with HIV peptide stimulation (which ranged from 0.0% to 0.5%).
Assay [4] relates to CD8 human cells. The note with it: cited from earlier work; for Stimulatory grade, B: Khan et al. 2002 (ELISPOT): HLA A*0201.
Assay [5] deals with CD8 human cells. The experiment in a line: Summary of stimulatory CMV IE1 HLA A*0201 restricted peptides, present report (Table I, A). It is filed as cell-based. From the text: These mutations may contribute to the low incidence of response to individual IE1 peptides. The locations of putative mutations are underlined. See Frankenberg et al., Virology 295: 208-216, 2002. Typically, the mutations that would most dramatically affect the binding of an epitope into the MHC molecule are situated at the anchor site, amino acid positions p2 and p9 of a peptide. See Falk et al., Semin. Immunol. 15:81-94, 1993; Zaia et al., J. Virol. 75:2472-2474, 2001. The only peptide showing a p2-p9 unstable mutation site is IE1-315, first described by Retiere (J. Virol. 74:3948-3952, 2000) using a TNF release assay. […] See Khan et al., J. Infect. Dis. 185:1025-1034, 2002. However IE1-316, which contains possible mutations at site p1 and p8, was more frequently recognized in this same study (6 out of 18) in an IFN-γ elispot assay. IE1-297, possibly mutated at p1 and p5, is a strong candidate for CMV immune recognition as well, since 3 of 4 patient PBLs responded in an ICC (intracellular cytokine) assay. Therefore, despite the presence of point mutation sites in IE1 epitopes, provided the anchor sites are intact, IE1-297 and IE1-316 peptides are presented by the MHC molecule after immunization with or exposure to CMV in HLA A*0201 subjects. In summary, IE1-297, IE1-316 and IE1-256 are peptides that stimulate CD8 human cells (Table I).

Assay [6] concerns CD8 human cells. The conditions noted are these: HLA A*0201; (pN) = peptide number in the source; cited from earlier work.
The mark [7] stands for this setting: T2 cells, 100 μM peptide, 18 hours.
The mark [8] stands for this setting: fluorescence compared to the mean of no peptide and HLA mismatch B7 peptide, 100 μM peptide.

Like-named read-outs stand apart in the source and are kept apart here.

In assay [1] (setting [7]), “RPHERNGFTVL (listed as Human cytomegalovirus) [CMVB7-265]” displayed a peak channel of 261. Moreover, the “Fold Increase” value in assay [1] (setting [8]) came to 1 fold.

In the case of phytohemagglutinin [PHA], the “% CD8+/IFN-γ” value in assay [2] (Patient No. 70, 150 days post-transplant) was less than 33.15%; in assay [2] (Patient No. 70, 180 days post-transplant), 19.2%; in assay [2] (Patient No. 93, 120 days post-transplant), 37.6%; in assay [2] (Patient No. 100, 40 days post-transplant), 2.09%. In addition, the “% CD8+/IFN-γ+ after peptide stimulation” value in assay [3] (Subj. 54, Day 40 post-HCT) was found to be 0.54%; in assay [3] (Subj. 54, Day 90 post-HCT) it was 5.34%; in assay [3] (Subj. 54, Day 150 post-HCT), 1.78%; in assay [3] (Subj. 54, Day 180 post-HCT) it was 4.27%; in assay [3] (Subj. 54, Day 360 post-HCT) it was 6.91%; in assay [3] (Subj. 70(D) donor, postG), 0.63%. Also, the “% CD8+/IFN-γ+ after peptide stimulation” value in assay [3] (Subj. 70(D) donor, preG) amounted to 0.24%; in assay [3] (Subj. 70, Day 40 post-HCT), 0.64%; in assay [3] (Subj. 70, Day 90 post-HCT) it was 5.09%; in assay [3] (Subj. 70, Day 120 post-HCT), 4.01%; in assay [3] (Subj. 70, Day 150 post-HCT), 2.44%; in assay [3] (Subj. 70, Day 180 post-HCT), 2.88%. Moreover, the “% CD8+/IFN-γ+ after peptide stimulation” value in assay [3] (Subj. 70, Day 360 post-HCT) was determined as 3.5%; in assay [3] (Subj. 93(D) donor, postG), 6.08%; in assay [3] (Subj. 93(D) donor, preG), 2.08%; in assay [3] (Subj. 93, Day 40 post-HCT), 6.32%; in assay [3] (Subj. 93, Day 120 post-HCT) it was 12.46%; in assay [3] (Subj. 93, Day 150 post-HCT), 21.01%. For the same substance, the “% CD8+/IFN-γ+ after peptide stimulation” value is 16.5% in assay [3] (Subj. 93, Day 360 post-HCT); 23.17% in assay [3] (Subj. 94, Day 40 post-HCT); 21.58% in assay [3] (Subj. 94, Day 90 post-HCT); 14.53% in assay [3] (Subj. 94, Day 120 post-HCT); 15.03% in assay [3] (Subj. 94, Day 150 post-HCT); 29.1% in assay [3] (Subj. 94, Day 180 post-HCT). For the same substance, the “% CD8+/IFN-γ+ after peptide stimulation” value in assay [3] (Subj. 94, Day 360 post-HCT) came to 20.21%; in assay [3] (Subj. 105(D) donor, postG), 5.3%; in assay [3] (Subj. 105, Day 40 post-HCT), 11.56%; in assay [3] (Subj. 105, Day 90 post-HCT), 40.76%; in assay [3] (Subj. 105, Day 120 post-HCT) it was 29.38%; in assay [3] (Subj. 105, Day 150 post-HCT), 26.14%.

On to “VLAELVKQI (listed as Human cytomegalovirus) [IE1-81]”, for which the “Stimulatory grade, B: Khan et al. 2002 (ELISPOT)” value (“Stimulatory grade, B” for short) in assay [4] is “neg”. The “Stimulatory grade, A: Present Report” value in assay [5] was “neg”. In assay [1] (setting [7]), this substance registered a peak channel of 495. In addition, the “Fold Increase” value in assay [1] (setting [8]) was determined as 2 fold. For the same substance, in assay [6], the “Stimulatory grade, C: Frankenberg et al. 2002 (IVS4)” value (“Stimulatory grade, C” below) is “(p2) neg”.

As for “SLLSEFCRV (listed as Human cytomegalovirus) [IE1-303]”, the “Stimulatory grade, B” value in assay [4] is “neg”. For the same substance, the “Stimulatory grade, C” value in assay [6] is “(p9) poor”.

Take “ILGADPLRV (listed as Human cytomegalovirus) [IE1-355]”: in assay [4], the “Stimulatory grade, B” value is given as “neg”. Besides, the “Stimulatory grade, C” value in assay [6] is “(p10) poor”.

On to TPRVTGGGAM [CMVB7-417], for which, in assay [1], the “Fold Increase” value came to 1 fold and the peak channel came to 232.

On to “YVLEETSVM (listed as Human cytomegalovirus) [IE1-315]”, for which the “subjects recognizing the peptide in IFN-γ elispot” value in assay [4] (out of 18 subjects, Khan et al.) is on record as “one subject out of 18”.

As for “LLSEFCRV (LLSEFCRVL; listed as Human cytomegalovirus) [IE1-304]”, the “Stimulatory grade, B” value in assay [4] is reported as “neg”. The “Stimulatory grade, A: Present Report” value in assay [5] is listed as “neg”. In assay [1] (setting [7]), the peak channel was determined as 433. The “Fold Increase” value in assay [1] (setting [8]) amounted to 1.8 fold. In assay [6], the “Stimulatory grade, C” value is “(p4) neg”.

These data come from US20050232933A1, “CMV-IE1 peptides and method of use” (priority 2003, published 2005).
